Assay results: PMC5225172 (Cancer Chemotherapy and Pharmacology, 2016)
“Also recorded” adds a separate entry of the source.

Tested on: advanced or refractory solid tumors
Assay: Tumor response and disease assessment by RECIST version 1.1
Assay type: in vivo, human
Text: Screening comprised: provision of written, informed consent; demographics; baseline characteristics; concomitant medications; safety assessments (adverse events [defined as any new finding not present in the patient’s medical history, or a worsening of a prior medical history finding], vital signs, laboratory tests, physical examination, 12-lead electrocardiogram, multigated acquisition scan, or echocardiogram); tumor measurements by computed tomography or magnetic resonance imaging; disease assessment as defined by RECIST version 1.1; ophthalmologic examination; chest computed tomography; and ECOG PS assessment. The following assessments were also performed on cycle 1, day 1: safety; ECOG PS assessment; concomitant medications; blood samples for PK analysis; serum samples for glucose analysis; serum insulin; urinalysis; serum ketones; and post-dose echocardiogram. Safety assessments, blood pressure measurements, blood sampling for PK analysis, and urinalysis were also performed on days 8 and 15 of cycle 1.
Additional PK samples were collected at either 72, 96, or 120 h following the start of infusion. PK samples were also collected on cycle 1, day 15 at 0, 0.5, 1, 1.5, 2, 3, 5, 8, 11, and 25 h following the start of infusion and on cycle 3, day 15 at 0, 0.5, 1, 1.5, 2, 3, 5, and 8 h following the start of infusion. Blood pressure monitoring was performed every 5 min before dosing on cycle 1, day 1 until the observation of two consecutive measurements <150 mmHg (systolic) and <90 mmHg (diastolic). […] Serum samples for glucose analysis were collected immediately before the first infusion and in parallel with PK sampling through to 49 h post-dose. Glucose samples taken at 25 h post-dose were to be fasting, where possible and if deemed safe. Capillary blood glucose testing was to be performed for hyperglycemia management as determined appropriate by the investigator; hyperglycemia was defined as capillary blood glucose >200 mg/dL and was to be treated with short-acting insulin. Tumor measurement and disease assessment according to RECIST version 1.1 were conducted every two cycles by the investigator.

COc1c(OCCCN2CCOCC2)ccc2c1N=C(NC(=O)c1cnc(N)nc1)N1CCN=C21 [copanlisib, Copanlisib] was tested, and the “Best overall response: Complete response” value (Cohort 1, 0.4 mg/kg (n = 3)) was 0 n (%), the “Best overall response: Partial response” value (Cohort 1, 0.4 mg/kg (n = 3)) was 0 n (%) and the “Best overall response: Progressive disease (by proven measurement)” value (Cohort 1, 0.4 mg/kg (n = 3)) was 2 (66.7) n (%). For the same molecule, the “Best overall response: Stable disease” value (Cohort 1, 0.4 mg/kg (n = 3)) was 1 (33.3) n (%), the “Overall disease control rate (complete response + partial response + stable disease)” value (“Overall disease control rate” for short) (Cohort 1, 0.4 mg/kg (n = 3)) was 1 (33.3) n (%) and the “Overall response rate (complete response + partial response)” value (“Overall response rate” for short) (Cohort 1, 0.4 mg/kg (n = 3)) was 0 n (%). For the same molecule, the “Best overall response: Complete response” value (Cohort 2, 0.8 mg/kg (n = 7)) was 0 n (%), the “Best overall response: Partial response” value (Cohort 2, 0.8 mg/kg (n = 7)) was 0 n (%) and the “Best overall response: Progressive disease (by proven measurement)” value (Cohort 2, 0.8 mg/kg (n = 7)) was 4 (57.1) n (%). The “Best overall response: Stable disease” value (Cohort 2, 0.8 mg/kg (n = 7)) was 3 (42.9) n (%), the “Overall disease control rate” value (Cohort 2, 0.8 mg/kg (n = 7)) was 3 (42.9) n (%) and the “Overall response rate” value (Cohort 2, 0.8 mg/kg (n = 7)) was 0 n (%). For the same molecule, the “Best overall response: Complete response” value (Total (n = 10)) was 0 n (%), the “Best overall response: Partial response” value (Total (n = 10)) was 0 n (%) and the “Best overall response: Progressive disease (by proven measurement)” value (Total (n = 10)) was 6 (60.0) n (%). The “Best overall response: Stable disease” value (Total (n = 10)) was 4 (40.0) n (%), the “Overall disease control rate” value (Total (n = 10)) was 4 (40.0) n (%) and the “Overall response rate” value (Total (n = 10)) was 0 n (%). The Disease control rate (cohort 1, 0.4 mg/kg) was 33.3%, the “Median time to progression” value (cohort 1, 0.4 mg/kg, 95% CI 50–77) was 52 days and the “Time to progression, single patient” value (cohort 1, stable disease as best response) was 77 days. For the same molecule, the Disease control rate (cohort 2, 0.8 mg/kg) was 42.9%, the “Median time to progression” value (cohort 2, 0.8 mg/kg, 95% CI 21–not estimated) was 53 days and the “Time to progression, single patient (censored)” value (cohort 2, gastrointestinal stromal tumor, stable disease, discontinued for thrombocytopenia) was 176 days. For the same molecule, the “Time to progression, single patient” value (cohort 2, stable disease as best response) was 82 days, the “Time to progression, single patient (censored)” value (cohort 2, stable disease, discontinued because of grade 3 diarrhea) was 50 days and the “Rate of progression-free survival” value (overall, after 1 month) was 0.80 (95% CI 0.41–0.95). For the same molecule, the “Rate of progression-free survival” value (overall, after 2 months) was 0.35 (95% CI 0.08–0.64), the “Rate of progression-free survival” value (overall, after 3 months) was 0.12 (95% CI 0.01–0.40) and the “Median time to progression” value (overall, 95% CI 21–82) was 52 days. For the same molecule, the “Complete or partial response” value (ten patients) was “No patients achieved a complete or partial response; also recorded: none experienced a complete or partial response”, the Disease control rate (ten patients) was 40% and the “Progressive disease as best response” value (ten patients) was 60.0%. For the same molecule, the “Stable disease as best response” value (ten patients) was 40.0%.
